Columns and labels:
Type in all cases: cell-based
Conditions in all cases: after 10, 20, 40 and 60 minutes at all dilutions 1:100, 1:200, 1:400, and 1:800
Staphylococcus aureus = assay: Antimicrobial activity by agar dilution, St. Aereus
Experimental: (§1) The antibacterial properties of the synthesized compound (12-bromo-2,16-dioxa-9,9,18,18-tetramethylpentacyclo[7.7.5.0^1,21.0^3,8.0^10,15]henicosa3(8),10,12,14-tetraene-7,20-dione) were studied by the method of agar dilution. Test solutions of each compound was prepared in concentration of 1% using dimethylformamide as a solvent. Then they were diluted in physiological solution to obtain the final experimental dilutions of 1:100, 1:200, 1:400, and 1:800. The effect of these substances were compared with furacillin in a controllable study. The testing microbes used were gram positive bacteria Staphylococcus aureus, gram negative bacteria Pseudomonas aeruginosa, Escherichia coli, and Candida albicans fungus. The experiments used for this survey were meat-pentonlu agar (EPA) for cultivation of bacteria and Saburo environment for fungi. Each experiment used 1 mL of test solution on each plate for 500 minutes. Two drops of emulsified with microbes feel were added. All experimental samples were taken from the agar after 10, 20, 40, 60 minutes in the environment on the basis of Patrk planted. Bacteria were cultivated at a temperature of 37° C. for 1 day and the mushroom was kept in a thermostat for 2 hours at a temperature of 28° C. Then results were checked. […]

Candida albicans = assay: Antimicrobial (antifungal) activity by agar dilution, Candida albicans
Experimental: as §1

Escherichia coli = assay: Antimicrobial activity by agar dilution, E. Coli
Experimental: as §1

Pseudomonas aeruginosa = assay: Antimicrobial activity by agar dilution, Ps. aeruginosa
Experimental: as §1

Measured: inhibition activity compared with the inhibition activity of Furacilin

CC1(C)CC(=O)C2=C(C1)OC13CC(C)(C)CC(=O)C1C2c1cc(Br)ccc1O3 (stereo not shown) [12-bromo-2,16-dioxa-9,9,18,18-tetramethylpentacyclo[7.7.5.0^1,21.0^3,8.0^10,15]henicosa3(8),10,12,14-tetraene-7,20-dione]
higher inhibition activity: Staphylococcus aureus | Candida albicans | Escherichia coli | Pseudomonas aeruginosa
